Reference: EP0429333B1, “Process for producing oxazopyrroloquinolines, novel oxazopyrroloquinolines, and use of oxazopyrroloquinolines” (priority 1989, dated 1991)

Assays:
[1] = Solubility of the isolated compound, described in words; assay type: physicochemical
[2] = molecular target: T1, aldose reductase of rabbit lens (Oryctolagus cuniculus, UniProt P15122); assay: Inhibitory effect on aldose reductase of lens; assay type: biochemical; settings: read-out: Degree of inhibition for aldose reductase (%)
T1 construct: to obtain electrophoretically homogeneous aldose reductase; from tissue; host or cells: rabbit lens
Method: (§1) 0.05 ml of 3mM NADPH, 0.1 ml of DL-glyceraldehyde and 0.04 ml of distilled water were added to 0.8 ml of 0.1M phosphoric acid buffer (pH 6.2) and left to stand at 25°C for 3 minutes. Then, 0.01 ml of the aldose reductase solution was added thereto to start reaction and decreasing of absorbance of 340 nm was measured at 25°C with time. Amount of enzyme which consumes 1 µmole of NADPH for 1 minute was taken as 1 unit.
Enzyme activity was measured under the same conditions as in the above measurement of aldose reductase activity except that 0.04 ml of aqueous solution of inhibitory substance in various concentrations was added in place of 0.04 ml of distilled water and degree of inhibition was calculated from comparison of the enzyme activity with the enzyme activity obtained in the absence of inhibitor. (1) OPQ, (2) methyl OPQ, (3) 1-methylpropyl OPQ, (4) 2-methylpropyl OPQ, (5) 2-carbamoylethyl OPQ, (6) hydroxymethyl OPQ, (7) 2-methylthioethyl OPQ, (8) 2-carboxyethyl OPQ, (9) 4-hydroxybenzyl OPQ, (10) 1-methylethyl OPQ, and (11) benzyl OPQ were used as inhibition substances and (12) PQQ was used as control.
Lens of rabbit was homogenized with 10mM phosphoric acid buffer (pH 7.0) containing 2mM dithiothreitol in an amount of two times the volume of the lens and subjected to centrifugation. The supernatant liquid was purified by affinity chromatography, gel filtration and chromatofocusing to obtain electrophoretically homogeneous aldose reductase. Using (1) OPQ, (2) 1-methylpropyl OPQ, (3) 2-methylpropyl OPQ, (4) hydroxymethyl OPQ, and (5) 1-methylethyl OPQ as inhibition substances, degree of inhibition of these substances for aldose reductase of rabbit lens was examined in the same manner in Example 32.

[3] = tested on: male SPF-ICR mice; assay: in vivo
Method: (§2) (1) Acute toxicity test: • (i) To male SPF-ICR mice of 5 weeks old (supplied by Charles River Co.) were intraperitoneally administered PQQ·2Na and OPQs in the dosages of 20, 40, 80, 160 and 200 mg/kg body weight of mouse, respectively and they were bred at 25°C for 14 days. OPQ, 1-methylpropyl OPQ, 2-methylthioethyl OPQ, and benzyl OPQ were used as the OPQs. One group consisted of 8 mice. […] One group consisted of 8 mice. […] They were bred at 25°C for 14 days. One group consisted of eight mice. […] (2) Toxicity to kidney (i) Toxicity to kidney determined by urine examination: In the same manner as in the acute toxicity test, PQQ·2Na and OPQs were respectively intraperitoneally administered to mice and these mice were bred. Urine was collected every day and concentration of glucose in urine was obtained using Uristex II (manufactured by Miles·Sankyo Co.). […]

[4] = tested on: kidney; assay: Toxicity to kidney determined by blood examination; assay type: in vivo, mice
Method: After one day from administration, the mice were fasted (only water was given) and after lapse of 18 hours, blood was collected and serum was obtained therefrom. Glucose, urea nitrogen and creatinine in the serum were examined using FUJI Dry Chemslide (manufactured by Fuji Photo Film Co., Ltd.). […]
Thereafter, the mice were fasted (with giving only water) and after lapse of 18 hours, blood was collected and serum was obtained therefrom. Contents of glucose, urea nitrogen and creatinine in serum were obtained using FUJI Dry Chemslide. The results were shown by average value for eight mice.

[5] = tested on: carbon tetrachloride (CCl4)-induced liver diseases; assay: Pharmacological activity on carbon tetrachloride-induced liver diseases; assay type: in vivo, SD rats; settings: 5mg/kg rat twice, CCl4 1 ml/kg rat
[6] = molecular target: aldose reductase of kidney (Canis lupus familiaris, UniProt A0A8I3P2L6); assay: Inhibitory effect on aldose reductase of kidney; assay type: biochemical, dog; settings: read-out: Degree of inhibition for aldose reductase (%)
Method: as §1, with “Medulla of kidney of dog was homogenized with 10mM phosphoric acid buffer (pH 7.0) containing 2mM dithiothreitol in an amount of four times the volume of kidney medulla and subjected to centrifugation. The supernatant liquid was purified by affinity chromatography, gel filtration and chromatofocusing to obtain electrophoretically homogeneous aldose reductase. 0.05” for “0.05”

[7] = tested on: cataract; assay: Anti-cataract effect, intraperitoneal administration, 50 % galactose fed rats; assay type: in vivo, Sprague-Davley rats; settings: for Body weight (average): 20mg/kg rat intraperitoneally once a day
Method: Eightyfour male Sprague-Davley rats (supplied from Japan Charles Liver Co.) of four weeks old and having a body weight of 70 - 80 g were used and the following experiments were conducted. One group consisted of six rats.
The groups included normal group, 50 % galactose administration group, PQQ administration group, and OPQ administration group. Commercially available feeding stuff (manufactured by Japan Clea Co.) was given to the rats of normal group, and rats of 50 % galactose administration group, PQQ administration group and OPQ administration group were allowed to freely take powdery feeding stuff comprising a mixture of the above-mentioned commercially available powder feeding stuff and D-galactose for food additive in equal weight.
To the rats of PQQ and OPQ administration groups were intraperitoneally administered PQQ·2Na or OPQ in a dosage of 2 mg, 5 mg, 10 mg and 20 mg per 1 kg of rat once a day simultaneously with starting of galactose feeding and until termination of feeding.
On the 6th day and the 9th day from starting of experiment, eyeball was observed by stereoscopic microscope and judgment on cataract was made according to the following criteria. A0: No muddiness (normal) A1: Light white muddiness in the surface portion. A2: A slight heavy white muddiness in the surface portion. A3: Heavy white muddiness in the surface portion. A4: Heavy white muddiness in the surface portion and a slight white muddiness in the core portion. A5: Heavy white muddiness in the surface portion and the core portion.

[8] = in vivo; settings: mouse, in vivo, ip
Method: as §2

## CCC(C)c1nc2c3nc(C(=O)O)cc(C(=O)O)c3c3[nH]c(C(=O)O)cc3c2o1 (stereo not shown) [1-Methylpropyl OPQ, 5-(1-Methylpropyl)-2,8,10-tricarboxy-1H-oxazo[5,4-h]-pyrrolo[2,3-f]quinoline]
[1]; acetone and diethyl ether
  solubility in acetone and diethyl ether: did not dissolve
[1]; lower alcohols
  solubility in lower alcohols: dissolved
[1]; water
  solubility in water: easily soluble
[1]; water, neutral and alkaline conditions
  solubility under neutral and alkaline conditions: very easily soluble
[2]; concentration 1x10^-6 M
  inhibition at 1 µM: 64.7%
[2]; concentration 1x10^-7 M
  inhibition at 0.1 µM: 24%
[2]; concentration 2x10^-7 M
  inhibition at 0.2 µM: 36.4%
[2]; concentration 5x10^-7 M
  inhibition at 0.5 µM: 50.8%
[3]; mouse, in vivo
  death of mice: no mice died
[4]; serum, 40 mg/kg mouse intraperitoneally, Table 2, no administration 0.8
  Creatinine: 0.8 mg/dL
[4]; serum, 40 mg/kg mouse intraperitoneally, Table 2, no administration 24
  Urea nitrogen: 26 mg/dL
[4]; serum, 40 mg/kg mouse intraperitoneally, Table 2, no administration 78
  Glucose: 87 mg/dL
[4]; serum, 80 mg/kg mouse intraperitoneally, Table 2, no administration 0.8
  Creatinine: 0.8 mg/dL
[4]; serum, 80 mg/kg mouse intraperitoneally, Table 2, no administration 24
  Urea nitrogen: 22 mg/dL
[4]; serum, 80 mg/kg mouse intraperitoneally, Table 2, no administration 78
  Glucose: 104 mg/dL
[4]; serum, 160 mg/kg mouse intraperitoneally, Table 2, no administration 0.8
  Creatinine: 0.8 mg/dL
[4]; serum, 160 mg/kg mouse intraperitoneally, Table 2, no administration 24
  Urea nitrogen: 27 mg/dL
[4]; serum, 160 mg/kg mouse intraperitoneally, Table 2, no administration 78
  Glucose: 87 mg/dL
[4]; serum, 200 mg/kg mouse intraperitoneally, Table 2, no administration 0.8
  Creatinine: 0.8 mg/dL
[4]; serum, 200 mg/kg mouse intraperitoneally, Table 2, no administration 24
  Urea nitrogen: 27 mg/dL
[4]; serum, 200 mg/kg mouse intraperitoneally, Table 2, no administration 78
  Glucose: 66 mg/dL
[5]; Table 27: CCl4 only 1.2, no administration 0.5
  Total bilirubin: 0.7 mg/dL
[5]; Table 27: CCl4 only 818, no administration 16
  GPT: 182 U/l
[5]; Table 27: CCl4 only 3308, no administration 144
  GOT: 887 U/l
[6]; concentration 1x10^-7 M
  inhibition at 0.1 µM: 32.6%
[6]; concentration 2x10^-7 M
  inhibition at 0.2 µM: 45.9%
[6]; concentration 5x10^-7 M
  inhibition at 0.5 µM: 61.7%

## O=C(O)c1cc(C(=O)O)c2c(n1)C(=O)C(=O)c1cc(C(=O)O)[nH]c1-2 [PQQ·2Na, reference compound]
[7]; 10 mg and 20 mg/kg rat intraperitoneally once a day
  body weight: reduction in body weight was recognized
[7]; 6th day, normal group about 115 g
  Body weight (average): * Body weight reduced (average 66 g). Body weight of rats of normal group was about 115 g on the average.
[7]; 9th day, normal group about 141 g
  Body weight (average): ** Body weight did not increase (average 77 g). Body weight of rats of normal group was about 141 g on the average.
[8]
  LD50 at 336 h: ~70 mg/kg
[3]; 80 mg intraperitoneally, 8 mice, 14 days
  death of mice: five mice died
[3]; 160 mg and 200 mg intraperitoneally, 8 mice, 14 days
  death of mice: all of eight mice died
[3]; mouse, in vivo
  death of mice: the mice survived
[4]; mouse, in vivo, ip, 20 mg/kg
  Creatinine: 0.8 mg/dL
  Glucose: 70 mg/dL
  Urea nitrogen: 25 mg/dL
[4]; mouse, in vivo, ip, 40 mg/kg
  Creatinine: 2.3 mg/dL
  Glucose: 60 mg/dL
  Urea nitrogen: 110 mg/dL
[4]; mouse, in vivo, ip, 80 mg/kg
  Creatinine: 3.4 mg/dL
  Glucose: 57 mg/dL
  Urea nitrogen: 130 mg/dL
[4]; mouse, in vivo, ip, 160 mg/kg
  Creatinine: 4.2 mg/dL
  Glucose: 35 mg/dL
  Urea nitrogen: 139 mg/dL
